Measurements reported in patent US20140343049A1, “DIHYDROFURAN DERIVATIVES AS INSECTICIDAL COMPOUNDS” (SYNGENTA PARTICIPATIONS AG, priority 2011, published 2014).

Tests used:
Format in all cases: in vivo
[1] = test system: Thrips tabaci (onion thrips); assay: Thrips tabaci sunflower leaf disc spray test; settings: foliar, 168 h, sunflower leaf discs sprayed at 200 ppm, mixed ages, mortality after 7 days
Experimental: Sunflower leaf discs were placed on agar in a 24-well microtiter plate and sprayed with test solutions at an application rate of 200 ppm. […] After drying, the leaf discs were infested with a thrip population of mixed ages. After an incubation period of 7 days, samples were checked for mortality.

[2] = test system: Diabrotica balteata (corn root worm); assay: Diabrotica balteata L2 larvae test on artificial diet; settings: 120 h, 200 ppm (concentration in well 18 ppm), 5 days, larval mortality and growth regulation
How it was run: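 Artificial diet treated with test solution at 200 ppm or 12.5 ppm application rate (in-well concentration stated as 18 ppm), dried, then infested with 6-10 L2 larvae per well. Larval mortality and growth regulation scored after 5 days.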

[3] = test system: Heliothis virescens (tobacco budworm); assay: Heliothis virescens egg test on artificial diet; settings: 96 h, 200 ppm (concentration in well 18 ppm), eggs 0-24 h old, 4 days, egg mortality, larval mortality, growth regulation
Experimental: Eggs (0-24 h old) were placed in 24-well microtiter plate on artificial diet and treated with test solutions at an application rate of 200 ppm (concentration in well 18 ppm) by pipetting. After an incubation period of 4 days, samples were checked for egg mortality, larval mortality, and growth regulation.

[4] = test system: Plutella xylostella (diamond back moth); assay: Plutella xylostella L2 larvae test on artificial diet; settings: 144 h, 200 ppm (concentration in well 18 ppm), 6 days, larval mortality and growth regulation
Experimental: 24-well microtiter plate (MTP) with artificial diet was treated with test solutions at an application rate of 200 ppm (concentration in well 18 ppm) by pipetting. After drying, the MTPs were infested with L2 larvae (7-12 per well). After an incubation period of 6 days, samples were checked for larval mortality and growth regulation.

[5] = test system: Spodoptera littoralis (Egyptian cotton leafworm); assay: Spodoptera littoralis cotton leaf disc spray test; settings: foliar, 72 h, cotton leaf discs sprayed at 200 ppm, 5 L1 larvae, mortality, feeding behavior, growth regulation 3 days after treatment
Description: Cotton leaf discs were placed on agar in a 24-well microtiter plate and sprayed with test solutions at an application rate of 200 ppm. After drying, the leaf discs were infested with 5 L1 larvae. The samples were checked for mortality, feeding behavior, and growth regulation 3 days after treatment (DAT).

[6] = test system: Tetranychus urticae (two-spotted spider mite); assay: Tetranychus urticae bean leaf disc spray test; settings: foliar, 192 h, bean leaf discs sprayed at 200 ppm, mixed ages, egg, larval and adult mortality 8 days later
How it was run: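 Leaf discs of bean on agar were sprayed at 200 ppm, dried, then infested with mixed-age mites. Egg, larval and adult mortality were scored 8 days later.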

[7] = test system: Myzus persicae (green peach aphid); assay: Myzus persicae (sachet) mixed population test; settings: 120 h, sucrose solution, application rate 12.5 ppm, mortality 5 days after infestation
Description: Test compounds were applied by pipette into 24 well plates and mixed with Sucrose solution. The plates were closed with a stretched Parafilm. A plastic stencil with 24 holes is placed onto the plate and infested pea seedlings were placed directly on the Parafilm. The infested plate is closed with a gel blotting paper and another plastic stencil and then turned upside down. 5 days after infestation the samples were checked on mortality. Application rate: 12.5 ppm.

[8] = test system: Spodoptera littoralis (Egyptian cotton leaf worm); assay: Spodoptera littoralis (systemic) test, compound in agar taken up by salad roots; settings: 120 h, application rate 12.5 ppm, checked 5 days after infestation for mortality, repellent effect, feeding behavior, growth regulation
Description: (§1) Test compounds were applied by pipette into 24 well plates and mixed with agar. Salad seeds were placed on the agar and the multi well plate is closed by another plate which contains also agar. After 7 days the roots have absorbed the compound and the salad has grown into the lid plate. The salad leafs were now cut off into the lid plate. Spodoptera eggs were pipette through a plastic stencil on a humid gel blotting paper and the plate closed with it. The samples are checked for mortality, repellent effect, feeding behavior, and growth regulation 5 days after infestation. Application rate: 12.5 ppm
as §1, with “infestation.” for “infestation. Application rate: 12.5 ppm”

Cc1cc(C2=CO[C@@](c3cc(Cl)cc(Cl)c3)(C(F)(F)F)C2)ccc1C(=O)NCC(=O)NCC(F)(F)F [Compound D5, 4-[(2S)-2-(3,5-dichlorophenyl)-2-(trifluoromethyl)-3H-furan-4-yl]-2-methyl-N-[2-oxo-2-(2,2,2-trifluoroethylamino)ethyl]benzamide]
≥ 80%: pest or weed control at 200 ppm [1] | pest or weed control at 200 ppm [2] | pest or weed control at 200 ppm [3] | pest or weed control at 200 ppm [4] | pest or weed control at 200 ppm [5] | pest or weed control at 200 ppm [6] | pest or weed control at 12.5 ppm [7] | pest or weed control at 12.5 ppm [8]

Cc1cc(C2=CC(c3cc(Cl)cc(Cl)c3)(C(F)(F)F)OC2)ccc1C(=O)NCc1ccccn1 (stereo not drawn) [Compound D15]
≥ 80%: pest or weed control at 200 ppm [1] | pest or weed control at 200 ppm [2] | pest or weed control at 200 ppm [3] | pest or weed control at 200 ppm [4] | pest or weed control at 200 ppm [5] | pest or weed control at 200 ppm [6] | pest or weed control at 12.5 ppm [7] | pest or weed control at 12.5 ppm [8]

O=C(CNC(=O)c1ccc(C2=CC(c3cc(Cl)cc(Cl)c3)(C(F)(F)F)OC2)nc1Cl)NCC(F)(F)F (stereo not drawn) [Compound F1, 2-Chloro-6-[5-(3,5-dichloro-phenyl)-5-trifluoromethyl-2,5-dihydro-furan-3-yl]-N-[(2,2,2-trifluoro-ethylcarbamoyl)-methyl]-nicotinamide]
≥ 80%: pest or weed control at 200 ppm [1] | pest or weed control at 200 ppm [2] | pest or weed control at 200 ppm [3] | pest or weed control at 200 ppm [4] | pest or weed control at 200 ppm [5] | pest or weed control at 200 ppm [6] | pest or weed control at 12.5 ppm [7] | pest or weed control at 12.5 ppm [8]
